Experimental findings from patent publication US12065442B2, “Tropomyosin receptor kinase (TRK) degradation compounds and methods of use” (Cullgen (Shanghai), Inc., priority 2018, dated 2024) are described below.

Usually IC50 stands for the concentration at which inhibition is half-maximal.

“Also recorded” adds a separate entry of the source.

For one assay, the system named is KM12 cells. In words: Cell viability assay (CellTiter-Glo) in KM12 cells. Type of assay: cell-based. As to conditions: 500 nM, 12-point 2-fold serial dilution, 3 days (FIG. 4A). In general terms: In ATP-based viability assays light output follows the ATP content of the culture.
Regarding `O=C1CCC(N2C(=O)c3cccc(NCCOCCOCCOCCC(=O)N4CCN(c5cccc(-c6cnc7ccc(N8CCC[C@@H]8c8cccc(F)c8)nn67)n5)CC4)c3C2=O)C(=O)N1` (stereo partly drawn) [CPD-010, 2-(2,6-Dioxopiperidin-3-yl)-4-((2-(2-(2-(3-(4-(6-(6-((R)-2-(3-fluorophenyl)pyrrolidin-1-yl)imidazo[1,2-b]pyridazin-3-yl)pyridin-2-yl)piperazin-1-yl)-3-oxopropoxy)ethoxy)ethoxy)ethyl)amino)isoindoline-1,3-dione], the “viability of KM12 cells” value is “inhibited the viability; also recorded: dose-dependently suppressed viability”.

Still in this assay, the particulars now being: Homo sapiens, 72 h; Table 2; KM12 cell viability, CellTiter-Glo, 3 days; read-out: IC50.
Take `Cc1ncsc1-c1ccc(CNC(=O)[C@@H]2C[C@@H](O)CN2C(=O)[C@@H](NC(=O)CCCCCC(=O)N2CCN(c3cccc(-c4cnc5ccc(N6CCC[C@@H]6c6cccc(F)c6)nn45)n3)CC2)C(C)(C)C)cc1` [CPD-004, (2S,4R)-1-((S)-2-(7-(4-(6-(6-((R)-2-(3-Fluorophenyl)pyrrolidin-1-yl)imidazo[1,2-b]pyridazin-3-yl)pyridin-2-yl)piperazin-1-yl)-7-oxoheptanamido)-3,3-dimethylbutanoyl)-4-hydroxy-N-(4-(4-methylthiazol-5-yl)benzyl)pyrrolidine-2-carboxamide]: the IC50 was determined as 176 nM.
With `Cc1ncsc1-c1ccc(CNC(=O)[C@@H]2C[C@@H](O)CN2C(=O)[C@@H](NC(=O)CCOCCOCCOCCOCCOCCC(=O)N2CCN(c3ccc(C(=O)Nc4n[nH]c5ccc(Cc6cc(F)cc(F)c6)cc45)c(NC4CCOCC4)c3)CC2)C(C)(C)C)cc1` [CPD-043, (2S,4R)-1-((S)-2-(tert-butyl)-22-(4-(4-((5-(3,5-Difluorobenzyl)-1H-indazol-3-yl)carbamoyl)-3-((tetrahydro-2H-pyran-4-yl)amino)phenyl)piperazin-1-yl)-4,22-dioxo-7,10,13,16,19-pentaoxa-3-azadocosanoyl)-4-hydroxy-N-(4-(4-methylthiazol-5-yl)benzyl)pyrrolidine-2-carboxamide], the IC50 was over 1000 nM.
Same read-out and setting: with `Cc1ncsc1-c1ccc(CNC(=O)[C@@H]2C[C@@H](O)CN2C(=O)[C@@H](NC(=O)CCCCCCC(=O)N2CCN(c3cccc(-c4cnc5ccc(N6CCC[C@@H]6c6cccc(F)c6)nn45)n3)CC2)C(C)(C)C)cc1` [CPD-029, (2S,4R)-1-((S)-2-(8-(4-(6-(6-((R)-2-(3-Fluorophenyl)pyrrolidin-1-yl)imidazo[1,2-b]pyridazin-3-yl)pyridin-2-yl)piperazin-1-yl)-8-oxooctanamido)-3,3-dimethylbutanoyl)-4-hydroxy-N-(4-(4-methylthiazol-5-yl)benzyl)pyrrolidine-2-carboxamide] the figure was 74 nM.
Same read-out and setting: with `O=C1CCC(N2C(=O)c3cccc(NCCCCCC(=O)N4CCN(c5cccc(-c6cnc7ccc(N8CCC[C@@H]8c8cccc(F)c8)nn67)n5)CC4)c3C2=O)C(=O)N1` (some centres unmarked) [CPD-015] the figure was 14.9 nM; with `O=C(CN1CCN(c2ccc(C(=O)Nc3n[nH]c4ccc(Cc5cc(F)cc(F)c5)cc34)c(NC3CCOCC3)c2)CC1)NCCOCCOCCOCCOCCOCCNc1cccc2c1C(=O)N(C1CCC(=O)NC1=O)C2=O` (centres unmarked) [CPD-065, N-(5-(3,5-difluorobenzyl)-1H-indazol-3-yl)-4-(4-(20-((2-(2,6-dioxopiperidin-3-yl)-1,3-dioxoisoindolin-4-yl)amino)-2-oxo-6,9,12,15,18-pentaoxa-3-azaicosyl)piperazin-1-yl)-2-((tetrahydro-2H-pyran-4-yl)amino)benzamide], 72.6 nM; with `O=C1CCC(N2C(=O)c3cccc(NCCOCCOCCOCCC(=O)N4CCN(c5cccc(-c6cnc7ccc(N8CCC[C@@H]8c8cccc(F)c8)nn67)n5)CC4)c3C2=O)C(=O)N1` (stereo partly drawn) [CPD-010, 2-(2,6-Dioxopiperidin-3-yl)-4-((2-(2-(2-(3-(4-(6-(6-((R)-2-(3-fluorophenyl)pyrrolidin-1-yl)imidazo[1,2-b]pyridazin-3-yl)pyridin-2-yl)piperazin-1-yl)-3-oxopropoxy)ethoxy)ethoxy)ethyl)amino)isoindoline-1,3-dione], 30 nM.
The same measure, in the same setting: the value for `O=C1CCC(N2C(=O)c3cccc(NCCCCCCC(=O)N4CCN(c5ccc(C(=O)Nc6n[nH]c7ccc(Cc8cc(F)cc(F)c8)cc67)c(NC6CCOCC6)c5)CC4)c3C2=O)C(=O)N1` (centres unmarked) [CPD-049, N-(5-(3,5-difluorobenzyl)-1H-indazol-3-yl)-4-(4-(7-((2-(2,6-dioxopiperidin-3-yl)-1,3-dioxoisoindolin-4-yl)amino)heptanoyl)piperazin-1-yl)-2-((tetrahydro-2H-pyran-4-yl)amino)benzamide] was 73 nM.

The assay is the same for the next values; noted with them: Homo sapiens, 72 h; Table 3; KM12 cell viability, CellTiter-Glo, 3 days; read-out: IC50.
`O=C1CCC(N2C(=O)c3ccc(NCCOCCOCCC(=O)N4CCN(c5ccc(C(=O)Nc6n[nH]c7ccc(Cc8cc(F)cc(F)c8)cc67)c(NC6CCOCC6)c5)CC4)cc3C2=O)C(=O)N1` (centres unmarked) [TR-141, N-(5-(3,5-Difluorobenzyl)-1H-indazol-3-yl)-4-(4-(3-(2-(2-((2-(2,6-dioxopiperidin-3-yl)-1,3-dioxoisoindolin-5-yl)amino)ethoxy)ethoxy)propanoyl)piperazin-1-yl)-2-((tetrahydro-2H-pyran-4-yl)amino)benzamide]: the concentration for half-maximal inhibition (IC50) came to 2.6 nM.
The same measure, in the same setting: the value for `O=C1CCC(N2C(=O)c3ccc(NCCCCC(=O)N4CCN(c5cccc(-c6cnc7ccc(N8CCC[C@@H]8c8cccc(F)c8)nn67)n5)CC4)cc3C2=O)C(=O)N1` (stereo partly drawn) [TR-115, 2-(2,6-Dioxopiperidin-3-yl)-5-((5-(4-(6-(6-((R)-2-(3-fluorophenyl)pyrrolidin-1-yl)imidazo[1,2-b]pyridazin-3-yl)pyridin-2-yl)piperazin-1-yl)-5-oxopentyl)amino)isoindoline-1,3-dione] was 0.9 nM; that for `O=C1CCC(N2C(=O)c3ccc(NCCC(=O)N4CCN(c5ccc(C(=O)Nc6n[nH]c7ccc(Cc8cc(F)cc(F)c8)cc67)c(NC6CCOCC6)c5)CC4)cc3C2=O)C(=O)N1` (centres unmarked) [TR-145, N-(5-(3,5-Difluorobenzyl)-1H-indazol-3-yl)-4-(4-(3-((2-(2,6-dioxopiperidin-3-yl)-1,3-dioxoisoindolin-5-yl)amino)propanoyl)piperazin-1-yl)-2-((tetrahydro-2H-pyran-4-yl)amino)benzamide] was 3.1 nM.
On the same count and under the same terms, with `O=C(CN1CCN(c2ccc(C(=O)Nc3n[nH]c4ccc(Cc5cc(F)cc(F)c5)cc34)c(NC3CCOCC3)c2)CC1)NCCCCCCCNc1ccc2c(c1)C(=O)N(C1CCC(=O)NC1=O)C2=O` (centres unmarked) [TR-157, N-(5-(3,5-Difluorobenzyl)-1H-indazol-3-yl)-4-(4-(2-((7-((2-(2,6-dioxopiperidin-3-yl)-1,3-dioxoisoindolin-5-yl)amino)heptyl)amino)-2-oxoethyl)piperazin-1-yl)-2-((tetrahydro-2H-pyran-4-yl)amino)benzamide] the figure was 8.3 nM.
The same measure, in the same setting: the value for `O=C1CCC(N2C(=O)c3ccc(NCCC(=O)N4CCN(c5cccc(-c6cnc7ccc(N8CCC[C@@H]8c8cccc(F)c8)nn67)n5)CC4)cc3C2=O)C(=O)N1` (stereo partly drawn) [TR-121, 2-(2,6-Dioxopiperidin-3-yl)-5-((3-(4-(6-(6-((R)-2-(3-fluorophenyl)pyrrolidin-1-yl)imidazo[1,2-b]pyridazin-3-yl)pyridin-2-yl)piperazin-1-yl)-3-oxopropyl)amino)isoindoline-1,3-dione] was 2.1 nM; that for `O=C(CN1CCN(c2ccc(C(=O)Nc3n[nH]c4ccc(Cc5cc(F)cc(F)c5)cc34)c(NC3CCOCC3)c2)CC1)NCCCCNc1cccc2c1C(=O)N(C1CCC(=O)NC1=O)C2=O` (centres unmarked) [TR-155, N-(5-(3,5-Difluorobenzyl)-1H-indazol-3-yl)-4-(4-(2-((4-((2-(2,6-dioxopiperidin-3-yl)-1,3-dioxoisoindolin-4-yl)amino)butyl)amino)-2-oxoethyl)piperazin-1-yl)-2-((tetrahydro-2H-pyran-4-yl)amino)benzamide] was 2.9 nM.
With `O=C1CCC(N2C(=O)c3ccc(NCCC4CCN(c5cccc(-c6cnc7ccc(N8CCC[C@@H]8c8cccc(F)c8)nn67)n5)CC4)cc3C2=O)C(=O)N1` (stereo partly drawn) [TR-180, 2-(2,6-Dioxopiperidin-3-yl)-5-((2-(1-(6-(6-((R)-2-(3-fluorophenyl)pyrrolidin-1-yl)imidazo[1,2-b]pyridazin-3-yl)pyridin-2-yl)piperidin-4-yl)ethyl)amino)isoindoline-1,3-dione], the IC50 is 33.8 nM.
As for `O=C1CCC(N2C(=O)c3ccc(NCCCC(=O)N4CCN(c5ccc(C(=O)Nc6n[nH]c7ccc(Cc8cc(F)cc(F)c8)cc67)c(NC6CCOCC6)c5)CC4)cc3C2=O)C(=O)N1` (centres unmarked) [TR-169, N-(5-(3,5-Difluorobenzyl)-1H-indazol-3-yl)-4-(4-(4-((2-(2,6-dioxopiperidin-3-yl)-1,3-dioxoisoindolin-5-yl)amino)butanoyl)piperazin-1-yl)-2-((tetrahydro-2H-pyran-4-yl)amino)benzamide], the IC50 amounted to 1.6 nM.
The same measure, in the same setting: with `O=C(CN1CCN(c2ccc(C(=O)Nc3n[nH]c4ccc(Cc5cc(F)cc(F)c5)cc34)c(NC3CCOCC3)c2)CC1)NCCCNc1cccc2c1C(=O)N(C1CCC(=O)NC1=O)C2=O` (centres unmarked) [TR-152, N-(5-(3,5-Difluorobenzyl)-1H-indazol-3-yl)-4-(4-(2-((3-((2-(2,6-dioxopiperidin-3-yl)-1,3-dioxoisoindolin-4-yl)amino)propyl)amino)-2-oxoethyl)piperazin-1-yl)-2-((tetrahydro-2H-pyran-4-yl)amino)benzamide] the figure was 3.1 nM.

Still in this assay, the particulars now being: Homo sapiens, 72 h; Table 4; KM12 cell viability, CellTiter-Glo, 3 days; read-out: IC50.
As to `Cn1c(=O)n(C2CCC(=O)NC2=O)c2cccc(C#CCCN3CCN(c4cccc(-c5cnc6ccc(N7CCC[C@@H]7c7cccc(F)c7)nn56)n4)CC3)c21` (stereo partly drawn) [TR-239, 3-(4-(4-(4-(6-(6-((R)-2-(3-fluorophenyl)pyrrolidin-1-yl)imidazo[1,2-b]pyridazin-3-yl)pyridin-2-yl)piperazin-1-yl)but-1-yn-1-yl)-3-methyl-2-oxo-2,3-dihydro-1H-benzo[d]imidazol-1-yl)piperidine-2,6-dione], the IC50 was 46 nM.
For `O=C1CCC(N2C(=O)c3ccc(NCCN4CCN(c5ccc(C(=O)Nc6n[nH]c7ccc(Cc8cc(F)cc(F)c8)cc67)c(NC6CCOCC6)c5)CC4)cc3C2=O)C(=O)N1` (centres unmarked) [TR-232, N-(5-(3,5-Difluorobenzyl)-1H-indazol-3-yl)-4-(4-(2-((2-(2,6-dioxopiperidin-3-yl)-1,3-dioxoisoindolin-5-yl)amino)ethyl)piperazin-1-yl)-2-((tetrahydro-2H-pyran-4-yl)amino)benzamide], the IC50 stood at 2.6 nM.
On the same count and under the same terms, with `O=C1CCC(n2c(=O)n(CCN3CCN(c4cccc(-c5cnc6ccc(N7CCC[C@@H]7c7cccc(F)c7)nn56)n4)CC3)c3ccccc32)C(=O)N1` (stereo partly drawn) [TR-227, 3-(3-(2-(4-(6-(6-((R)-2-(3-Fluorophenyl)pyrrolidin-1-yl)imidazo[1,2-b]pyridazin-3-yl)pyridin-2-yl)piperazin-1-yl)ethyl)-2-oxo-2,3-dihydro-1H-benzo[d]imidazol-1-yl)piperidine-2,6-dione] the figure was 23.6 nM.
